Measured values published in US9221792B2, “N-(4-(azetidine-1-carbonyl) phenyl)-(hetero-) arylsulfonamide derivatives as pyruvate kinase M2 (PMK2) modulators” (AGIOS PHARMACEUTICALS, INC, priority 2010, dated 2015).

Target: PKM2 (Homo sapiens, UniProt P14618)
Assay: PKM2 Assay (activation, LDH-coupled NADH absorbance at 340 nm)
Type: biochemical
Conditions: not given
Experimental: • PKM2 stock enzyme solution was diluted in Reaction Buffer • 2 μL of compound was added into each well first, and then 180 μL of the Reaction Mix was added. • Reaction mixture with compound (without ADP) were incubated for 30 minutes at 4° C. • Plates were re-equilibrated to room temperature prior to adding 20 μL ADP to initiate the reaction. • Reaction progress was measured as changes in absorbance at 340 nm wavelength at room temperature (25° C.) Reaction Mix: PKM2 (50 ng/well), ADP (0.7 mM), PEP (0.15 mM), NADH (180 μM), LDH (2 units) in Reaction Buffer Reaction Buffer: 100 mM KCl, 50 mM Tris pH 7.5, 5 mM MgCl2, 1 mM DTT, 0.03% BSA.
Certain compounds of Formula I were tested in the above-described assay. A compound described herein may be tested for its ability to activate PKM2. The activation activity of these compounds is represented as an AC50 in Table 2 and throughout the application. […] “B” refers to an activator of PKM2 with an EC50 between 100 nM and 1 μM. “C” refers to an activator of PKM2 with an EC50 between 1 μM and 10 μM. “D” refers to an activator of PKM2 with an EC50 greater than 10 μM. “NA” refers to data that is not available.

Sequence of PKM2 (P14618 whole entry): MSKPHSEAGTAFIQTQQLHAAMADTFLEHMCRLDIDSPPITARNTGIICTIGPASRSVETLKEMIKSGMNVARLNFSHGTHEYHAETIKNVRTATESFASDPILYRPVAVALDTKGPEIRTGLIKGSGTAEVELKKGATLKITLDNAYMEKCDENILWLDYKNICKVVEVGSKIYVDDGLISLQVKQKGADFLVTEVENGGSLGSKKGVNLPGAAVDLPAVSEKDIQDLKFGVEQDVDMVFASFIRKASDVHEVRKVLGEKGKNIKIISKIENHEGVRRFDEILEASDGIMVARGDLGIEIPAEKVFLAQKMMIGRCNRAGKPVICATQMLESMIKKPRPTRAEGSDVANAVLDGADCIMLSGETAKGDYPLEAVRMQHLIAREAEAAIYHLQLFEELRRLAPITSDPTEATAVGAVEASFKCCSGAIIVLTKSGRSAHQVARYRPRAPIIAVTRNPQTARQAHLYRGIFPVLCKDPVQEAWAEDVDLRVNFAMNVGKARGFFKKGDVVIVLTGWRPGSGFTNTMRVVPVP

| SMILES | AC50 [µM] |
| --- | --- |
| O=C(Cc1ccccc1)OC1CN(C(=O)c2ccc(NS(=O)(=O)c3cccc4cccnc34)cc2)C1 [Compound 123, 1-(4-(Quinoline-8-sulfonamido)benzoyl)azetidin-3-yl 2-phenylacetate] | 0.1 to 1 |

Same assay, conditions: activation of PKM2; PKM2 50 ng/well, ADP 0.7 mM, PEP 0.15 mM, room temperature (25° C.); read-out: AC50

| SMILES | AC50 [µM] |
| --- | --- |
| Cc1cc(C(=O)N2CC(OC(=O)NC(C)C)C2)ccc1NS(=O)(=O)c1cccc2cccnc12 [Compound 132, 1-(3-Methyl-4-(quinoline-8-sulfonamido)benzoyl)azetidin-3-yl isopropylcarbamate] | 0.1 to 1 |
| O=C(c1ccc(NS(=O)(=O)c2cccc3cccnc23)cc1)N1CC(OCc2ccccc2)C1 [Compound 108, N-(4-(3-(benzyloxy)azetidine-1-carbonyl)phenyl)quinoline-8-sulfonamide] | 0.1 to 1 |
| COc1ccccc1N(C)C1CN(C(=O)c2ccc(S(=O)(=O)Nc3cccc4cccnc34)cc2)C1 [Compound 128] | > 10 |
| CC1(O)CN(C(=O)c2ccc(NS(=O)(=O)c3cccc4cccnc34)cc2)C1 [Compound 126] | > 10 |
| Cc1cc(C(=O)N2CC(OC(=O)c3ccccn3)C2)ccc1NS(=O)(=O)c1cccc2cccnc12 [Compound 110, 1-(3-Methyl-4-(quinoline-8-sulfonamido)benzoyl)azetidin-3-yl picolinate] | 0.1 to 1 |
| COc1cc(NS(=O)(=O)c2cccc3cccnc23)ccc1C(=O)N1CC(OC(=O)NC(C)C)C1 [Compound 133, 1-(2-Methoxy-4-(quinoline-8-sulfonamido)benzoyl)azetidin-3-yl isopropylcarbamate] | 0.1 to 1 |
| COc1ccccc1NC1CN(C(=O)c2ccc(NS(=O)(=O)c3cccc4cccnc34)c(C)c2)C1 [Compound 114] | < 0.1 |
| O=C(OC1CN(C(=O)c2ccc(NS(=O)(=O)c3cccc4cccnc34)c(F)c2)C1)c1ccccn1 [Compound 124, 1-(3-Fluoro-4-(quinoline-8-sulfonamido)benzoyl)azetidin-3-yl picolinate] | 1 to 10 |
| COC1(Cc2ccccc2)CN(C(=O)c2ccc(NS(=O)(=O)c3cccc4cccnc34)cc2)C1 [Compound 105, N-(4-(3-benzyl-3-methoxyazetidine-1-carbonyl)phenyl)quinoline-8-sulfonamide] | 0.1 to 1 |
| Cc1cc(C(=O)N2CC(Nc3ccccn3)C2)ccc1NS(=O)(=O)c1cccc2cccnc12 [Compound 151] | < 0.1 |
| CC(C)NC(=O)OC1CN(C(=O)c2ccc(NS(=O)(=O)c3cccc4cccnc34)cc2)C1 [Compound 135, 1-(4-(Quinoline-8-sulfonamido)benzoyl)azetidin-3-yl isopropylcarbamate] | 1 to 10 |
| CN(Cc1ccccc1)C1CN(C(=O)c2ccc(NS(=O)(=O)c3cccc4cccnc34)cc2)C1 [Compound 146] | 0.1 to 1 |
| Cc1cc(C(=O)N2CC(OCc3ccccc3)C2)ccc1NS(=O)(=O)c1cccc2cccnc12 [Compound 120, N-(4-(3-(benzyloxy)azetidine-1-carbonyl)-2-methylphenyl)quinoline-8-sulfonamide] | 0.1 to 1 |
| O=C(c1ccc(NS(=O)(=O)c2cccc3cccnc23)cc1)N1CC(O)(c2ccccc2)C1 [Compound 136] | 0.1 to 1 |
| O=C(c1ccc(NS(=O)(=O)c2cccc3cccnc23)cc1)N1CC(O)(Cc2ccccc2)C1 [Compound 101, N-(4-(3-benzyl-3-hydroxyazetidine-1-carbonyl)phenyl)quinoline-8-sulfonamide] | < 0.1 |
| COc1cc(NS(=O)(=O)c2cccc3cccnc23)ccc1C(=O)N1CC(C)(O)C1 [Compound 127] | 1 to 10 |
| O=C(c1ccc(NS(=O)(=O)c2cccc3cccnc23)cc1)N1CC(Nc2ccccc2)C1 [Compound 112] | < 0.1 |
| O=C(Nc1ccccn1)OC1CN(C(=O)c2ccc(NS(=O)(=O)c3cccc4cccnc34)cc2)C1 [Compound 161, 1-(4-(Quinoline-8-sulfonamido)benzoyl)azetidin-3-ylpyridin-2-ylcarbamate] | 1 to 10 |
| COc1cc(NS(=O)(=O)c2cccc3cccnc23)ccc1C(=O)N1CC(OC(=O)Nc2ccccn2)C1 [Compound 157, 1-(2-Methoxy-4-(quinoline-8-sulfonamido)benzoyl)azetidin-3-yl pyridin-2-ylcarbamate] | 0.1 to 1 |
| O=C(c1ccc(S(=O)(=O)Nc2cccc3cccnc23)cc1)N1CC(OCc2ccccc2)C1 [Compound 119] | 1 to 10 |
| COc1ccccc1N(C)C1CN(C(=O)c2ccc(NS(=O)(=O)c3cccc4cccnc34)cc2)C1 [Compound 117] | 0.1 to 1 |
| CC1(O)CN(C(=O)c2ccc(NS(=O)(=O)c3cccc4cccnc34)c(F)c2)C1 [Compound 125] | > 10 |
| COc1ccccc1OC1CN(C(=O)c2ccc(NS(=O)(=O)c3cccc4cccnc34)cc2OC)C1 [Compound 150] | < 0.1 |
| Cc1cc(C(=O)N2CC(O)(c3ccccc3)C2)ccc1NS(=O)(=O)c1cccc2cccnc12 [Compound 137] | 0.1 to 1 |
| COc1cc(C(=O)N2CC(OC(=O)Nc3ccccn3)C2)ccc1NS(=O)(=O)c1cccc2cccnc12 [Compound 156, 1-(3-Methoxy-4-(quinoline-8-sulfonamido)benzoyl)azetidin-3-yl pyridin-2-ylcarbamate] | 0.1 to 1 |

| SMILES | AC50 [µM] |
| --- | --- |
| COc1cc(NS(=O)(=O)c2cccc3cccnc23)ccc1C(=O)N1CC(O)(c2ccccc2)C1 [Compound 138] | < 0.1 |
| O=C(c1ccc(NS(=O)(=O)c2cccc3cccnc23)c(F)c1)N1CC(Oc2ccccc2)C1 [Compound 107] | 0.1 to 1 |
| O=C(Nc1ccccn1)OC1CN(C(=O)c2ccc(NS(=O)(=O)c3cccc4cccnc34)c(F)c2)C1 [Compound 162, 1-(3-Fluoro-4-(quinoline-8-sulfonamido)benzoyl)azetidin-3-yl pyridin-2-ylcarbamate] | > 10 |
| Cc1cc(C(=O)N2CC(Nc3ccccc3)C2)ccc1NS(=O)(=O)c1cccc2cccnc12 [Compound 145] | < 0.1 |
| C=CCNC(=O)NC1CN(C(=O)c2ccc(NS(=O)(=O)c3cccc4cccnc34)c(OC)c2)C1 [Compound 140, N-(4-(3-(3-Allylureido)azetidine-1-carbonyl)-2-methoxyphenyl)quinoline-8-sulfonamide] | 1 to 10 |
| Cc1cc(C(=O)N2CC(O)C2)ccc1NS(=O)(=O)c1cccc2cccnc12 [Compound 142] | 1 to 10 |
| O=C(c1ccc(NS(=O)(=O)c2cccc3cccnc23)cc1)N1CC(O)C1 [Compound 141] | > 10 |
| COc1ccccc1NC1CN(C(=O)c2ccc(S(=O)(=O)Nc3cccc4cccnc34)cc2)C1 [Compound 116] | > 10 |
| COc1ccccc1OC1CN(C(=O)c2ccc(NS(=O)(=O)c3cccc4cccnc34)c(C)c2)C1 [Compound 159] | < 0.1 |
| Cc1cc(C(=O)N2CC(Oc3ccccc3)C2)ccc1NS(=O)(=O)c1cccc2cccnc12 [Compound 106] | < 0.1 |
| COc1ccncc1NC1CN(C(=O)c2ccc(NS(=O)(=O)c3cccc4cccnc34)c(C)c2)C1 [Compound 153] | 0.1 to 1 |
| COc1ccccc1OC1CN(C(=O)c2ccc(NS(=O)(=O)c3cccc4cccnc34)cc2)C1 [Compound 129] | 0.1 to 1 |
| COc1ccccc1OC1CN(C(=O)c2ccc(NS(=O)(=O)c3cccc4cccnc34)c(F)c2)C1 [Compound 154] | 0.1 to 1 |
| O=C(Nc1ccccn1)NC1CN(C(=O)c2ccc(NS(=O)(=O)c3cccc4cccnc34)cc2)C1 [Compound 160, N-(4-(3-(3-(Pyridin-2-yl)ureido)azetidine-1-carbonyl)phenyl)quinoline-8-sulfonamide] | 0.1 to 1 |
| Cc1cc(C(=O)N2CC(C)(O)C2)ccc1NS(=O)(=O)c1cccc2cccnc12 [Compound 144] | 1 to 10 |
| C=CCNC(=O)NC1CN(C(=O)c2ccc(NS(=O)(=O)c3cccc4cccnc34)cc2)C1 [Compound 139, N-(4-(3-(3-Allylureido)azetidine-1-carbonyl)phenyl)quinoline-8-sulfonamide] | 1 to 10 |
| COc1cc(C(=O)N2CC(Oc3ccccc3OC)C2)ccc1NS(=O)(=O)c1cccc2cccnc12 [Compound 158] | < 0.1 |
| O=C(NC1CN(C(=O)c2ccc(S(=O)(=O)Nc3cccc4cccnc34)cc2)C1)c1ccccn1 [Compound 104] | > 10 |
| O=C(NC1CN(C(=O)c2ccc(NS(=O)(=O)c3cccc4cccnc34)cc2)C1)c1ccccn1 [Compound 111, N-(1-(4-(Quinoline-8-sulfonamido)benzoyl)azetidin-3-yl)picolinamide] | 1 to 10 |
| COc1ccccc1NC1CN(C(=O)c2ccc(NS(=O)(=O)c3cccc4cccnc34)c(F)c2)C1 [Compound 115] | 0.1 to 1 |
| O=C(c1ccc(NS(=O)(=O)c2cccc3cccnc23)cc1)N1CC(NCc2ccccc2)C1 [Compound 147, N-(4-(3-(benzylamino)azetidine-1-carbonyl)phenyl)quinoline-8-sulfonamide] | 0.1 to 1 |
| O=C(NC1CN(C(=O)c2ccc(NS(=O)(=O)c3cccc4cccnc34)c(F)c2)C1)c1ccccn1 [Compound 121, N-(1-(3-Fluoro-4-(quinoline-8-sulfonamido)benzoyl)azetidin-3-yl)picolinamide] | 1 to 10 |
| O=C(c1ccc(NS(=O)(=O)c2cccc3cccnc23)cc1)N1CC(Oc2ccccc2)C1 [Compound 100] | 0.1 to 1 |
| COc1cc(NS(=O)(=O)c2cccc3cccnc23)ccc1C(=O)N1CC(O)C1 [Compound 143] | > 10 |
| O=C(c1ccc(NS(=O)(=O)c2cccc3cccnc23)cc1)N1CC(=Cc2ccccc2)C1 [Compound 165] | 0.1 to 1 |
